Holding throughout (assay type): binding
The target in experiment [1] is T1, H3K4 peptide (unmethylated) (Homo sapiens, UniProt P68431).
T1 construct: H3 1-7=H2N-ARTKQTAY-COOH; made in house; host or cells: chemical solid-phase peptide synthesis
Briefly: fluorescence indicator displacement assay, solution-phase affinity for H3K4 peptide. Conditions: for Kd: 10 mM phosphate buffer at pH 7.4, average of triplicate determinations, indicator displacement assay, read-out: Solution-phase equilibrium dissociation constant (Kd), H3K4; for binding to unmethylated controls (in words): solution phase, relative to methylated peptides. The method, then:
(§1) In this example, the activity of various compound embodiments described herein were evaluated. A calixarene parent compound and compounds 502 and 404 were evaluated. Compound 502 was used has an upper-rim aryl group attached via sulfonamide linkage, and also includes a distal carboxy group for conjugation to solid-phase supports. The solution-phase affinities of a calixarene parent compound, and compounds 502 and 404 were determined for various methyllysine and methylarginine containing peptides by fluorescence indicator displacement assay (Table 1).
(§2) All values were determined in 10 mM phosphate buffer at pH 7.4 and are averages of triplicate determinations by an indicator displacement assay.

For another experiment, the target named is T2, H3K4me peptide (Homo sapiens, UniProt P68431).
T2 construct: H3 1-7=H2N-ARTKQTAY-COOH; made in house; host or cells: chemical solid-phase peptide synthesis
Briefly: fluorescence indicator displacement assay, solution-phase affinity for H3K4me peptide. Conditions: 10 mM phosphate buffer at pH 7.4, average of triplicate determinations, read-out: Solution-phase equilibrium dissociation constant (Kd), H3K4me. How it is done:
as §1, §2

The target of another experiment is T3, H3K4me2 peptide (Homo sapiens, UniProt P68431).
T3 construct: H3 1-7=H2N-ARTKQTAY-COOH; made in house; host or cells: chemical solid-phase peptide synthesis
Briefly: fluorescence indicator displacement assay, solution-phase affinity for H3K4me2 peptide. The following applies: for Kd: 10 mM phosphate buffer at pH 7.4, average of triplicate determinations, read-out: Solution-phase equilibrium dissociation constant (Kd), H3K4me2; for affinity for Kme2-containing peptides (in words): solution phase. The method, then: as §1, §2

The next experiment has as its target T4, H3K4me3 peptide.
T4 construct: other: solution phase, indicator displacement assay; fused on or other part: C-terminal Tyr added to read concentration by A280; trimethyl-lysine (a PTM)
Briefly: fluorescence indicator displacement assay, solution-phase affinity for H3K4me3 peptide. The method, then: as §1, §2

The next experiment has as its target T5, H3K4ac peptide (Homo sapiens, UniProt P68431).
T5 construct: H3 1-7=H2N-ARTKQTAY-COOH; made in house; host or cells: chemical solid-phase peptide synthesis
Kind of experiment: fluorescence indicator displacement assay, solution-phase affinity for H3K4ac peptide. The following applies: for Kd: 10 mM phosphate buffer at pH 7.4, average of triplicate determinations, indicator displacement assay, read-out: Solution-phase equilibrium dissociation constant (Kd), H3K4ac; for binding to Kac containing peptides (in words): solution phase, relative to methylated peptides. How it is done:
as §1, §2

Another experiment has as its target T6, H3R2me2s peptide (Homo sapiens, UniProt P68431).
T6 construct: H3 1-7=H2N-ARTKQTAY-COOH; made in house; host or cells: chemical solid-phase peptide synthesis
Briefly: fluorescence indicator displacement assay, solution-phase affinity for H3R2me2s peptide. Conditions: 10 mM phosphate buffer at pH 7.4, average of triplicate determinations, read-out: Solution-phase equilibrium dissociation constant (Kd), H3R2me2s. The method, then:
as §1, §2

For another experiment, the target named is T7, H3R2me2a peptide (Homo sapiens, UniProt P68431).
T7 construct: H3 1-7=H2N-ARTKQTAY-COOH; made in house; host or cells: chemical solid-phase peptide synthesis
Kind of experiment: fluorescence indicator displacement assay, solution-phase affinity for H3R2me2a peptide. The following applies: for Kd: 10 mM phosphate buffer at pH 7.4, average of triplicate determinations, read-out: Solution-phase equilibrium dissociation constant (Kd), H3R2me2a. How it is done: as §1, §2

Another experiment has as its target T8, H3K9me3 peptide (Homo sapiens, UniProt P68431).
T8 construct: H3 1-12=H2N-ARTKQTARKSTGY-COOH; made in house; host or cells: chemical solid-phase peptide synthesis
Kind of experiment: fluorescence indicator displacement assay, solution-phase affinity for H3K9me3 peptide. The following applies: 10 mM phosphate buffer at pH 7.4, average of triplicate determinations, read-out: Solution-phase equilibrium dissociation constant (Kd), H3K9me3. The method, then: as §1, §2

A word on the Kd: it is the equilibrium constant for the complex coming apart. Regarding `O=C(O)Cc1ccc(-c2cc3c(O)c(c2)Cc2cc(S(=O)(=O)O)cc(c2O)Cc2cc(S(=O)(=O)O)cc(c2O)Cc2cc(S(=O)(=O)O)cc(c2O)C3)cc1` [Compound 404, 5-(4-carboxymethylphenyl)-25, 26, 27, 28-tetrahydroxy-11-17-23-trisulfonatocalix[4]arene], the Kd in experiment [1] is 85.5 µM; on H3K4me peptide, 2.3 µM; at H3K4me2 peptide it was 0.1 µM; at H3K4ac peptide it was more than 1000 µM; at H3R2me2s peptide it was 6.62 µM; on H3R2me2a peptide, 1 µM. For the same compound, the Kd at H3K9me3 peptide was found to be 1 µM. The “binding to unmethylated controls (in words)” value in experiment [1] was “weaker binding”. For the same compound, at H3K4me2 peptide, the “affinity for Kme2-containing peptides (in words)” value is given as “sub-micromolar”. In addition, the “affinity for Kme3-containing peptides (in words)” value on H3K4me3 peptide is listed as “sub-micromolar”. The “binding to Kac containing peptides (in words)” value at H3K4ac peptide is recorded as “weaker binding”.

`O=C(O)c1ccc(S(=O)(=O)Nc2cc3c(O)c(c2)Cc2cc(S(=O)(=O)O)cc(c2O)Cc2cc(S(=O)(=O)O)cc(c2O)Cc2cc(S(=O)(=O)O)cc(c2O)C3)cc1` [Compound 502, 5-(4-carboxyphenyl)sulfonamido-25, 26, 27, 28-tetrahydroxy-11-17-23-trisulfonatocalix[4]arene]: the Kd in experiment [1] is 3.8 µM; on H3K4me peptide, 1.3 µM; at H3K4me2 peptide it was 0.4 µM; on H3K4ac peptide it was 7.6 µM; on H3R2me2s peptide, 2.6 µM; on H3R2me2a peptide, 0.6 µM. At H3K9me3 peptide, the Kd turned out to be 0.5 µM. Besides, the “binding to unmethylated controls (in words)” value in experiment [1] is listed as “weaker binding”. The “affinity for Kme2-containing peptides (in words)” value at H3K4me2 peptide was “sub-micromolar”. Further, the “affinity for Kme3-containing peptides (in words)” value at H3K4me3 peptide is recorded as “sub-micromolar”. The “binding to Kac containing peptides (in words)” value at H3K4ac peptide is “weaker binding”. In addition, on H3R2me2a peptide (solution phase), the “affinity for aDMA-containing peptides (in words)” value is on record as “sub-micromolar”.

The values are drawn from patent US10338037B2, “Compounds and conjugates for identifying and separating post-translationally modified analytes” (UVic Industry Partnerships Inc., priority 2015, dated 2019).
